These results are taken from ChEMBL document CHEMBL2046378, “Investigation of chalcones as selective inhibitors of the breast cancer resistance protein: critical role of methoxylation in both inhibition potency and cytotoxicity” (J Med Chem, 2012).

Data set [1] deals with T1, ABCG2 (Homo sapiens, UniProt Q9UNQ0).
T1 sequence (Q9UNQ0 whole entry): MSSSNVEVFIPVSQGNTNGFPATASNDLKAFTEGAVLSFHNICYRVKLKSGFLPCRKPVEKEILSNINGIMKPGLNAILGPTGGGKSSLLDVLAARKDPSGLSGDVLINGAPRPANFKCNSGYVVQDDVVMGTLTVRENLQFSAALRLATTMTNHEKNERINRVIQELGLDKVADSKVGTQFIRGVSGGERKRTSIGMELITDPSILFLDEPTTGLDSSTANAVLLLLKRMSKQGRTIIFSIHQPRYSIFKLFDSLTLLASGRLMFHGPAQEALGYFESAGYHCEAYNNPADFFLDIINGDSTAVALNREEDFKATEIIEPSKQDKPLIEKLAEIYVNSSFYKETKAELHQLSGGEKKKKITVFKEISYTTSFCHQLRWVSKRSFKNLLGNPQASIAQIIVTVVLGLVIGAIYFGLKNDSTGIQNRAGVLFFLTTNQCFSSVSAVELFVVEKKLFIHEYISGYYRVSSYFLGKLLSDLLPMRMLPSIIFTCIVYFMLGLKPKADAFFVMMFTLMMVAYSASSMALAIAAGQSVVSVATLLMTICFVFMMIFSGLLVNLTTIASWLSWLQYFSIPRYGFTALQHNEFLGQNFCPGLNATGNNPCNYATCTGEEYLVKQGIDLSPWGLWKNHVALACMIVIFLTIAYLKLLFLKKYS
Briefly: Inhibition of ABCG2-mediated mitoxantrone efflux expressed in HEK293 cells at 10 uM after 48 hrs by flow cytometric analysis. Conditions: HEK293 cells expressing ABCG2, probe mitoxantrone; call rule not given here. It is filed as cell-based. (A flow cytometer gives signals particle by particle.)

Data set [2] deals with T1, ABCG2. The experiment in a line: Inhibition of ABCG2-mediated mitoxantrone efflux expressed in HEK293 cells at 2 uM after 48 hrs by flow cytometric analysis. The class given is cell-based. Conditions: HEK293 cells expressing ABCG2, probe mitoxantrone.
In data set [3] the test system is ABCG2. Briefly: Therapeutic index, ratio of IG50 for HEK293 cells to IC50 for ABCG2. The class given is cell-based. Conditions: human, read-out: TI.
For data set [4], the target named is T2, Broad substrate specificity ATP-binding cassette transporter ABCG2 (Homo sapiens, UniProt Q9UNQ0).
T2 sequence (Q9UNQ0 whole entry): T1 sequence (Q9UNQ0 whole entry)
The experiment in a line: Inhibition of ABCG2-mediated mitoxantrone efflux expressed in HEK293 cells after 48 hrs by flow cytometric analysis. The class given is cell-based.

Another data set relates to HEK293. Briefly: Cytotoxicity against human HEK293 cells transfected with ABCG2 up to 100 uM after 72 hrs by MTT assay. It is filed as ADME, cell-based. Conditions: hek293, 72 h. For orientation: Tetrazolium dyes change colour on reduction, which living cells bring about.
In data set [5] the target is ATP-dependent translocase ABCB1 (Homo sapiens, UniProt P08183). Briefly: Inhibition of ABCB1-mediated mitoxantrone efflux expressed in HEK293 cells at 10 uM after 48 hrs by flow cytometric analysis. It is filed as cell-based. As to conditions: hek293, 48 h.
ATP-dependent translocase ABCB1, sequence (P08183 whole entry): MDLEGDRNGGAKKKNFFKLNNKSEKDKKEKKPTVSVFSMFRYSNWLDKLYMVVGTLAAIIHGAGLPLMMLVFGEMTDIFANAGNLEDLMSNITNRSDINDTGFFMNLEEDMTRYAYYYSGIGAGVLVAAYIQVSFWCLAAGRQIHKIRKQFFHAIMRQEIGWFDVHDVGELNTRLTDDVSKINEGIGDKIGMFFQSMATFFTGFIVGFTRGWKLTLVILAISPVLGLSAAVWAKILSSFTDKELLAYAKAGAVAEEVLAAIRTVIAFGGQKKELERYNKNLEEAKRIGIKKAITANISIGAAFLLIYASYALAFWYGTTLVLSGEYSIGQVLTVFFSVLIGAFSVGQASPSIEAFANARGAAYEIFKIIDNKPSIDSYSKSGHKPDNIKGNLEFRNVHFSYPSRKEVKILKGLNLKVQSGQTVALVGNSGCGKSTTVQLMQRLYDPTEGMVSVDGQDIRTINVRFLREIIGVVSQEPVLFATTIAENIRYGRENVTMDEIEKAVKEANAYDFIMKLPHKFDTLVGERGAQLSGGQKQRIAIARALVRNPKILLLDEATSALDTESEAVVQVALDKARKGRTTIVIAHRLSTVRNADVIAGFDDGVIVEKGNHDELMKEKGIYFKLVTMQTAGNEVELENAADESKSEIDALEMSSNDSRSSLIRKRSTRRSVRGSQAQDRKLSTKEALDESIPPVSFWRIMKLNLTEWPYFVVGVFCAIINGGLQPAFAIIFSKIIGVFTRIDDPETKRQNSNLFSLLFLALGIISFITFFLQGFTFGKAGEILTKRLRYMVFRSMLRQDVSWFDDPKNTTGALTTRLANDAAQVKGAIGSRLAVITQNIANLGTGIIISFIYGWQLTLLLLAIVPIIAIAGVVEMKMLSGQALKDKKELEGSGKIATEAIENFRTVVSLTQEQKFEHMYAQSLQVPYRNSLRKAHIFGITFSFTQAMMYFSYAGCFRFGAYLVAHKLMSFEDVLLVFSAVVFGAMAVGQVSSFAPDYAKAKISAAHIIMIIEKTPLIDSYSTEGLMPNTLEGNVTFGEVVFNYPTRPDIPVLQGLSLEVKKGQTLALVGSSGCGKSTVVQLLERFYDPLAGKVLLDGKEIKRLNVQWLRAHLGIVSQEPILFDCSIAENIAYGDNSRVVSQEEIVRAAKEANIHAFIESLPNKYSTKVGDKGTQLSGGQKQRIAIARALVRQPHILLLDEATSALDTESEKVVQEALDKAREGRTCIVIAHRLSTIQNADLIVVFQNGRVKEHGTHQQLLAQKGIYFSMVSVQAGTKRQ
Data set [6] is described as follows: Cytotoxicity against human HEK293 cells transfected with ABCG2 after 72 hrs by MTT assay. The class given is ADME, cell-based. Conditions: read-out: IG50.
Data set [7] deals with Multidrug resistance-associated protein 1 (Homo sapiens, UniProt P33527). Briefly: Inhibition of ABCC1-mediated calcein transport expressed in human HEK293 cells at 10 uM after 48 hrs by flow cytometric analysis. As to conditions: hek293, 48 h. It is filed as cell-based.
Multidrug resistance-associated protein 1, sequence (P33527 whole entry): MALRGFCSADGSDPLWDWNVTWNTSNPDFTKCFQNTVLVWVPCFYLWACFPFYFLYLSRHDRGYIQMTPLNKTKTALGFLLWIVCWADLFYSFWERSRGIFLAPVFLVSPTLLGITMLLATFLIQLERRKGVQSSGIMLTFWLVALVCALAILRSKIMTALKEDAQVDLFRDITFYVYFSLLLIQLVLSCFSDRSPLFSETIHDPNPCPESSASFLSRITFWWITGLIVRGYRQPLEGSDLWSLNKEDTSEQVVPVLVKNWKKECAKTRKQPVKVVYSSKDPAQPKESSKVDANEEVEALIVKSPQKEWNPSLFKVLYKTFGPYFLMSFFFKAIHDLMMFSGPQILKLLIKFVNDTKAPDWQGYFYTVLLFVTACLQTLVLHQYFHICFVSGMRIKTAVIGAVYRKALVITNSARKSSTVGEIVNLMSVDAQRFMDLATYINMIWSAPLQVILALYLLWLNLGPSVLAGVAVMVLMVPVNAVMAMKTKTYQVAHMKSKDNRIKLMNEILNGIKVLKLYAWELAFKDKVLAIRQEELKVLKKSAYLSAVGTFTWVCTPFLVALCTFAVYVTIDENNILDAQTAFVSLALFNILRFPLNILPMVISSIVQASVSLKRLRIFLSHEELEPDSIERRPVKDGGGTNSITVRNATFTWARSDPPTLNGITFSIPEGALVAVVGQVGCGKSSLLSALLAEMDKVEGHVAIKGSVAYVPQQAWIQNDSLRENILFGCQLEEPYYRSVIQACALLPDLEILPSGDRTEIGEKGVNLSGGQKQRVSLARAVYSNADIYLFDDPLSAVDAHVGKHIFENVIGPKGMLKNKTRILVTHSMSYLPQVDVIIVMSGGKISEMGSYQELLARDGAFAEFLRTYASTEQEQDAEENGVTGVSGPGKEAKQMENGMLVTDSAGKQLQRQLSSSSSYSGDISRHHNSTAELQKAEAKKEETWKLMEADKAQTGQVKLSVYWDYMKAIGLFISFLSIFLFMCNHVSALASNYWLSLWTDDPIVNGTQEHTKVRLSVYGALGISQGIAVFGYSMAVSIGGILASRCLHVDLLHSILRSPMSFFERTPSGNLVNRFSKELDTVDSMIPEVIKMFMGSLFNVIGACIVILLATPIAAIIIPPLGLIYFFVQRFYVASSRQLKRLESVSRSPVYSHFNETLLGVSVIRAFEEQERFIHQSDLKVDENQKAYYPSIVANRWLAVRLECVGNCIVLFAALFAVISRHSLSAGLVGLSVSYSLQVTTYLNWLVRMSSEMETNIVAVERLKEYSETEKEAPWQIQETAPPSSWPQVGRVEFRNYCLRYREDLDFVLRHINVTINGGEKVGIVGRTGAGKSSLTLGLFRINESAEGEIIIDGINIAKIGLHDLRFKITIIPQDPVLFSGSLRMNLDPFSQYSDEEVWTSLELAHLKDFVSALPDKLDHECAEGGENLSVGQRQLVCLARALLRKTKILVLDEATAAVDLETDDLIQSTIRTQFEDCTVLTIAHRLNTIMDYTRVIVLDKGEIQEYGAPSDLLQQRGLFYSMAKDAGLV
Data set [8] addresses T1, ABCG2. The experiment in a line: Inhibition of ABCG2-mediated mitoxantrone efflux expressed in HEK293 cells at 5 uM after 48 hrs by flow cytometric analysis. It is filed as cell-based. Conditions: HEK293 cells expressing ABCG2, probe mitoxantrone.

Turning to `COc1ccc(C(=O)/C=C/c2cn(C)c3ccccc23)cc1`, the inhibition (in general, the change of the read-out against control, counted positive when it falls) at 48 h, 10 µM at ABCG2 [1] came to 89%. In addition, the inhibition at 48 h, 2 µM against ABCG2 [2] is 55.5%.

`COc1ccc(/C=C/C(=O)c2cn(C)c3ccccc23)c(OC)c1`: at ABCG2 [1], the inhibition at 48 h, 10 µM was determined as 108%. Also, at ABCG2 [2], the inhibition at 48 h, 2 µM stood at 83.8%.

In the case of `COc1cccc(OC)c1/C=C/C(=O)c1cn(C)c2ccccc12`, the selectivity ratio in the data set with ABCG2 [3] was 185. Further, the IC50 (commonly the midpoint of a concentration-inhibition curve) in data set [4] is 270 nM. Moreover, the inhibition at 48 h, 10 µM against ABCG2 [1] was found to be 113%. Moreover, the Activity entry with HEK293 is listed as “Non-toxic”. For the same compound, the “inhibition (INH)” value in data set [5] and in data set [7] was “Not Active” in each case. In addition, the GI50 at 72 h in data set [6] was 50000 nM. In addition, the inhibition at 48 h, 2 µM against ABCG2 [2] was determined as 104%.

Regarding `COc1cc(OC)c(/C=C/C(=O)c2cn(C)c3ccccc23)c(OC)c1`, in the data set on ABCG2 [3], the selectivity ratio worked out at 9. The compound further gave a half-maximal inhibitory concentration (IC50) in data set [4] of 450 nM. Also, the inhibition at 48 h, 10 µM against ABCG2 [1] was 109%. In addition, the Activity result in the data set with HEK293 is “Non-toxic”. Further, the “inhibition (INH)” value in [5] and in [7] was “Not Active” each time. Also, the GI50 at 72 h in data set [6] is 4000 nM. The inhibition at 48 h, 2 µM against ABCG2 [2] is 93.8%.

Turning to `COc1cc(/C=C/C(=O)c2cn(C)c3ccccc23)cc(OC)c1OC`, on ABCG2 [1], the inhibition at 48 h, 10 µM stood at 70%. Further, at ABCG2 [2], the inhibition at 48 h, 2 µM was found to be 49.3%.

As to `COc1cc(OC)c(/C=C/C(=O)c2cn(C)c3ccc(OC)cc23)c(OC)c1`, the selectivity ratio with ABCG2 [3] was found to be 3. Also, the IC50 in [4] amounted to 350 nM. Further, the inhibition at 48 h, 10 µM on ABCG2 [1] came out at 111%. In addition, the Activity entry in the data set with HEK293 is given as “Non-toxic”. For the same compound, the “inhibition (INH)” value in data set [5] and in data set [7] was “Not Active” in each case. Besides, the GI50 at 72 h in data set [6] worked out at 1000 nM. Moreover, on ABCG2 [2], the inhibition at 48 h, 2 µM was determined as 89.1%.

`Cn1cc(/C=C/C(=O)c2cn(C)c3ccccc23)c2ccccc21`: at ABCG2 [1], the inhibition at 48 h, 10 µM was found to be 98.8%. The inhibition at 48 h, 2 µM at ABCG2 [2] was 52.1%.

On to `COc1ccc(C(=O)/C=C/c2cn(C)c3ccccc23)c(OC)c1`, for which the inhibition at 48 h, 10 µM against ABCG2 [1] is 125%. Further, the inhibition at 48 h, 2 µM at ABCG2 [2] was 88.2%.

For `COc1cc(OC)c(C(=O)/C=C/c2cn(C)c3ccccc23)c(OC)c1`, at ABCG2 [1], the inhibition at 48 h, 10 µM was 30%. For the same compound, the inhibition at 48 h, 2 µM on ABCG2 [2] is 3.7%.

Consider `COc1cccc(OC)c1C(=O)/C=C/c1cn(C)c2ccccc12`, for which the inhibition at 48 h, 10 µM against ABCG2 [1] was 17.4%. The inhibition at 48 h, 2 µM against ABCG2 [2] came to 2.9%.

In data set [4], `COc1cc(O)c(C(=O)/C=C/c2c(OC)cccc2OC)c(OC)c1` returned an IC50 of 350 nM. Moreover, the Activity entry in the data set with HEK293 was “Non-toxic”. The “inhibition (INH)” value in data set [5] and in data set [7] was “Not Active” each time. In data set [6], the GI50 at 72 h came to 50000 nM.

Consider `COc1ccc(C(=O)/C=C/c2ccc(OC)c(OC)c2)c(O)c1`, for which the inhibition at 48 h, 10 µM at ABCG2 [1] came to 76.5%. Further, the inhibition at 48 h, 2 µM against ABCG2 [2] came out at 71.1%.

In the case of `COc1cc2c(cc1OC)CN(CCc1ccc(NC(=O)c3cccc4c(=O)c5cccc(OC)c5[nH]c34)cc1)CC2`, the inhibition at 48 h, 5 µM against ABCG2 [8] is 100%.

Regarding `COc1cc(/C=C/C(=O)c2c(O)cc(OC)cc2OC)cc(OC)c1`, the half-maximal inhibitory concentration (IC50) in data set [4] is 170 nM. Also, the Activity result in the data set with HEK293 was “Non-toxic”. The “inhibition (INH)” value in data set [5] and in data set [7] was “Not Active” in each case. The GI50 at 72 h in data set [6] stood at 6000 nM.

`COc1cccc(/C=C/C(=O)c2c(O)cc(OC)cc2OC)c1` displayed an IC50 in data set [4] of 260 nM. For the same compound, the Activity result with HEK293 is recorded as “Non-toxic”. The “inhibition (INH)” value in data set [5] and in [7] was “Not Active” throughout. Moreover, in [6], the GI50 at 72 h came to 10000 nM.
